Measurements from US12029727B2, “Combinations and methods for the treatment of neuropathic pain” (priority 2016, dated 2024).

Legend:
[1] = tested on: neuropathic pain model induced by L5/L6 spinal nerve ligation (tactile allodynia); settings: rat, in vivo, po
Description: Antineuropathic effect of a combination of pregabalin and alpha lipoic acid through the neuropathic pain model induced by L5/L6 spinal nerve ligation in rat was determined.
Wistar female rats with a body weight of 120-140 g were used for all experiments. Animals were kept under temperature controlled conditions (22° C.) and water and food were given ad-libitum in experimentation rooms.
Both pregabalin and alpha lipoic acid were suspended in a 0.5% carboxymethylcellulose isotonic saline solution. Individual drugs or in combination were prepared and administered just before starting the experiment.
Rats were prepared according to the method described by Kim S H, Chung J M. 1992. […]
Tactile allodynia was determined according to the previously described method by Chaplan S R, Bach F W, Pogrel J W, Chung J M, Yaksh T L. 1994. […] Paw withdrawal mechanical threshold was measured immediately after and a systemic administration of drugs was carried out. Later, paw withdrawal mechanical threshold was measured at 0.5, 1, 2, 3, 4, 5, 6, 7 and 8 hours. […]
Graphs of 50% withdrawal threshold in grams (g) in function of time (minutes) were prepared from data obtained. Area under curve was determined from these graphs through trapezoidal method and % of maximum possible effect (% MEP) was calculated using the following formula: % MEP=(Drug AUC−Neuropathic AUC)/(Sham AUC−Neuropathic AUC)×100 […]

[2] = Safety/tolerability observations in treated rats; settings: 30 mg/Kg dose
Description: Wistar female rats with a body weight of 120-140 g were used for all experiments. Animals were kept under temperature controlled conditions (22° C.) and water and food were given ad-libitum in experimentation rooms. Experiments were carried out according to the guidelines on ethical issues on experimental pain research in animals (Zimmermann M. 1983. Ethical guidelines for investigations of experimental pain in conscious animals. Pain. 16:109-110).

O=C(O)CCCCC1CCSS1 (stereo not drawn) [alpha lipoic acid]
ED50 [1]: 57.5 ± 5.59 mg/kg

CC(C)C[C@H](CN)CC(=O)O [pregabalin]
ED50 [1]: 2.45 ± 0.23 mg/kg | adverse signs observed [2]: sedation and motor discoordination
